Measurements taken from patent US12667572B2, “Tricyclic compounds useful in the treatment of cancer, autoimmune and inflammatory disorders” (SCHRÖDINGER, INC., priority 2021, dated 2026).

Columns and labels:
[1] = tested on: IL10 secretion in OCI-LY10 cells; assay: Human IL10 secretion assay, Assay 2 (MSD); type: cell-based; conditions: Homo sapiens, 24 h incubation, Meso Scale Discovery, read-out: IL-10 Secretion IC50 [nM] Assay 2
Procedure: IL10 is one of the cytokines that are regulated via activation of NF-kB signaling. For example, in ABC-DLBCL cell lines, the activated NF-kB signaling leads to increased IL10 secretion. Inhibition of NF-kB signaling has been shown leading to decreased IL10 secretion.
Assay 2: OCI-LY10 cells were seeded in IMEM supplemented with 20% fetal bovine serum at 4.8×10^5 cells per 160 μL per well in 96-well V-bottom cell culture plates (corning, 3894), treated with 120 nL of 3-fold serial compound dilutions, starting at 4 mM. The final vehicle concentration was 0.075% DMSO in all wells. After a 24 h incubation, human IL-10 precoated plates (Meso Scale Discovery) were washed 3 times with PBST, and 50 μL culture medium was aspirated into the MSD plate and incubated at 4° C. overnight. The supernatant was then discarded, and the wells were washed 3 times with PB ST. SULFO-TAG Anti-human IL-10 Antibody (50×) was diluted 50-fold according to the Meso Scale Protocol, then 25 μL of SULFO-TAG Anti-human IL-10 Antibody (1×) was added. After 2 h of incubation at RT, the supernatant was discarded, and the well was washed 3 times with PBST. 2×read buffer was added and the signal was read on an MSD Sector S600. The effect of a particular compound on IL10 secretion is shown relative to the effect of DMSO; set as 100%. IC50 values (nM) were determined using 4-parametric curve-fitting.

[2] = biological target: T1, full-length MALT1 protein His-MALT1(1-824) (Homo sapiens, UniProt Q9UDY8); assay: MALT1 protease assay, Assay 2 (1 nM MALT1, Ac-LRSR-AMC substrate); type: biochemical; conditions: 1 nM MALT1, 50 μM Ac-LRSR-AMC, 2 h pre-incubation, 8 hr incubation at RT
T1 construct: full-length MALT1 protein His-MALT1(1-824); His (N); made in house; host or cells: baculovirus-infected insect cells
T1 sequence (Q9UDY8 1-824): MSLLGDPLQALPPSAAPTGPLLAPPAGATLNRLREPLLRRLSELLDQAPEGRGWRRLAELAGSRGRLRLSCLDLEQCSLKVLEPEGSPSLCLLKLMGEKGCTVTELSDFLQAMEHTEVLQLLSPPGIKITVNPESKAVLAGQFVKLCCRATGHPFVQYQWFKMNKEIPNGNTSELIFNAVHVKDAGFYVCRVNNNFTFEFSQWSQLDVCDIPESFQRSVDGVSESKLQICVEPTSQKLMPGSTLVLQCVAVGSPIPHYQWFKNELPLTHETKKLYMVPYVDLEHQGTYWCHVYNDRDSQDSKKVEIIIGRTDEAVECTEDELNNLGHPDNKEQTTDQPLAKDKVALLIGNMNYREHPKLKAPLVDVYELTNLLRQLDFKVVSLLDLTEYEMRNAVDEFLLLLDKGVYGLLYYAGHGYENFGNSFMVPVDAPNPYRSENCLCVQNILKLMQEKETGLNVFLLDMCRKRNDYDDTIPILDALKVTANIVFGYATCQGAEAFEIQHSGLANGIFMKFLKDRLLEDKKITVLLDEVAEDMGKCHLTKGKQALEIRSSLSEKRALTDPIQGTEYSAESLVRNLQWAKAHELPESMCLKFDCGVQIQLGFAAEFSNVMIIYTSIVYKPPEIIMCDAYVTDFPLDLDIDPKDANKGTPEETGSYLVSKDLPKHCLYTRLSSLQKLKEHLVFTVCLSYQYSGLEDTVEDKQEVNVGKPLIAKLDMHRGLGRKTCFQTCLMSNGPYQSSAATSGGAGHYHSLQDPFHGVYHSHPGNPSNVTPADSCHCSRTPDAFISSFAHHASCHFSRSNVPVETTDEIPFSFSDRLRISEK
Outline: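 Compounds (0.1% DMSO final) sat 2 h at RT with insect-cell-expressed His-MALT1(1-824), in 50 mM Tris pH 7.5, 600 mM sodium citrate, 1 mM DTT, 1 mM EDTA, 0.05% BSA. Cleavage of 50 μM Ac-LRSR-AMC (Km ~100 μM) ran 8 h at RT, read as AMC fluorescence. IC50 and Hill coefficient fitted to % remaining activity.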

Row | Structure (SMILES) | IC50 [1] [nM] | IC50 [2] [nM]
1 | O=C(Nc1cnc(-n2nccn2)c(Cl)c1)C1CC2(CC2)c2c1cnc1cc(Cl)nn21 (single isomer, unassigned) [Example 97, 2-chloro-N-(5-chloro-6-(2H-1,2,3-triazol-2-yl)pyridin-3-yl)-6,7-dihydrospiro[cyclopenta[e]pyrazolo[1,5-a]pyrimidine-8,1′-cyclopropane]-6-carboxamide] | 100 to 1000 | 10 to 100
2 | CC1(C)CC(C(=O)Nc2cnc(-n3nccn3)c(C#N)c2)c2cnc3cc(Cl)nn3c21 (single isomer, unassigned) [Example 107, 2-chloro-N-(5-cyano-6-(2H-1,2,3-triazol-2-yl)pyridin-3-yl)-8,8-dimethyl-7,8-dihydro-6H-cyclopenta[e]pyrazolo[1,5-a]pyrimidine-6-carboxamide] | 10 to 100 | < 10
3 | O=C(Nc1cnc(-n2nccn2)c(Cl)c1)[C@H]1CC2(CCC2)c2c1cnc1cc(F)nn21 (single isomer, unassigned) [Example 108, N-(5-chloro-6-(2H-1,2,3-triazol-2-yl)pyridin-3-yl)-2′-fluoro-6′,7′-dihydrospiro[cyclobutane-1,8′-cyclopenta[e]pyrazolo[1,5-a]pyrimidine]-6′-carboxamide] | 100 to 1000 | < 10
4 | CC1(C)CC(C(=O)Nc2cnc(-n3nccn3)c(Cl)c2)c2cnc3c(F)c(F)nn3c21 (single isomer, unassigned) [Example 122, N-(5-chloro-6-(2H-1,2,3-triazol-2-yl)pyridin-3-yl)-2,3-difluoro-8,8-dimethyl-7,8-dihydro-6H-cyclopenta[e]pyrazolo[1,5-a]pyrimidine-6-carboxamide] | 100 to 1000 | < 10
5 | CC1(C)CC(C(=O)Nc2cc(N=S(C)(C)=O)nc(C(F)(F)F)c2)c2cnc3cc(F)nn3c21 (single isomer, unassigned) [Example 128, N-(2-((dimethyl(oxo)-λ^6-sulfaneylidene)amino)-6-(trifluoromethyl)pyridin-4-yl)-2-fluoro-8,8-dimethyl-7,8-dihydro-6H-cyclopenta[e]pyrazolo[1,5-a]pyrimidine-6-carboxamide] | 100 to 1000 | 10 to 100
6 | Cn1nnnc1-c1ncc(NC(=O)C2CC(C)(C)c3c2cnc2cc(Cl)nn32)cc1Cl (single isomer, unassigned) [Example 145, 2-chloro-N-(5-chloro-6-(1-methyl-1H-tetrazol-5-yl)pyridin-3-yl)-8,8-dimethyl-7,8-dihydro-6H-cyclopenta[e]pyrazolo[1,5-a]pyrimidine-6-carboxamide] | 100 to 1000 | < 10
7 | O=C(Nc1cnc(-n2nccn2)c(C(F)(F)F)c1)C1CC2(CC2)c2c1cnc1cc(Cl)nn21 (single isomer, unassigned) [Example 149, N-(6-(2H-1,2,3-triazol-2-yl)-5-(trifluoromethyl)pyridin-3-yl)-2-chloro-6,7-dihydrospiro[cyclopenta[e]pyrazolo[1,5-a]pyrimidine-8,1′-cyclopropane]-6-carboxamide] | 100 to 1000 | 10 to 100
8 | C[C@H](O)c1cnn(-c2ncc(NC(=O)[C@H]3CC4(CCC4)c4c3cnc3cc(Cl)nn43)cc2Cl)n1 (single isomer, unassigned) [Example 158] | 100 to 1000 | 10 to 100
9 | C[C@@H](O)c1cnn(-c2ncc(NC(=O)[C@H]3CC4(CCC4)c4c3cnc3cc(Cl)nn43)cc2Cl)n1 (single isomer, unassigned) [Example 160] | 10 to 100 | < 10

Second part, the compound after the results:

Row | IC50 [1] [nM] | IC50 [2] [nM] | Structure (SMILES)
10 | 100 to 1000 | 10 to 100 | O=C(Nc1cnc(-n2nccn2)c(Cl)c1)C1CC2(CC2)c2c1cnc1cc(F)nn21 (single isomer, unassigned) [Example 95, N-(5-chloro-6-(2H-1,2,3-triazol-2-yl)pyridin-3-yl)-2-fluoro-6,7-dihydrospiro[cyclopenta[e]pyrazolo[1,5-a]pyrimidine-8,1′-cyclopropane]-6-carboxamide]
11 | 100 to 1000 | 10 to 100 | CC1(C)CC(C(=O)Nc2cnc(-n3nccn3)c(Cl)c2)c2cnc3c(F)cnn3c21 (single isomer, unassigned) [Example 101, N-(5-chloro-6-(2H-1,2,3-triazol-2-yl)pyridin-3-yl)-3-fluoro-8,8-dimethyl-7,8-dihydro-6H-cyclopenta[e]pyrazolo[1,5-a]pyrimidine-6-carboxamide]
12 | 100 to 1000 | < 10 | N#Cc1cc(NC(=O)C2CC3(CCC3)c3c2cnc2cc(F)nn32)cnc1OC(F)F (single isomer, unassigned) [Example 103, N-(5-cyano-6-(difluoromethoxy)pyridin-3-yl)-2′-fluoro-6′,7′-dihydrospiro[cyclobutane-1,8′-cyclopenta[e]pyrazolo[1,5-a]pyrimidine]-6′-carboxamide]
13 | 10 to 100 | < 10 | CC1(C)CC(C(=O)Nc2cnc(-n3ncc(C4COC4)n3)c(Cl)c2)c2cnc3cc(Cl)nn3c21 (single isomer, unassigned) [Example 111, 2-chloro-N-(5-chloro-6-(4-(oxetan-3-yl)-2H-1,2,3-triazol-2-yl)pyridin-3-yl)-8,8-dimethyl-7,8-dihydro-6H-cyclopenta[e]pyrazolo[1,5-a]pyrimidine-6-carboxamide]
14 | 10 to 100 | < 10 | CC1(C)CC(C(=O)Nc2cnc(-n3nccn3)c(C(F)(F)F)c2)c2cnc3cc(F)nn3c21 (single isomer, unassigned) [Example 151, N-(6-(2H-1,2,3-triazol-2-yl)-5-(trifluoromethyl)pyridin-3-yl)-2-fluoro-8,8-dimethyl-7,8-dihydro-6H-cyclopenta[e]pyrazolo[1,5-a]pyrimidine-6-carboxamide]
15 | ≥ 1000 | 10 to 100 | Cc1cc2cc(F)c3c(n2n1)C(C)(C)CC3C(=O)Nc1cnc(-n2nccn2)c(Cl)c1 (single isomer, unassigned) [Example 157, N-(5-chloro-6-(2H-1,2,3-triazol-2-yl)pyridin-3-yl)-5-fluoro-2,8,8-trimethyl-7,8-dihydro-6H-cyclopenta[e]pyrazolo[1,5-a]pyridine-6-carboxamide]
16 | 100 to 1000 | < 10 | Cc1cn2ncc3c(c2n1)C(C)(C)CC3C(=O)Nc1cnc(-n2nccn2)c(Cl)c1 (single isomer, unassigned) [Example 189, N-(5-chloro-6-(2H-1,2,3-triazol-2-yl)pyridin-3-yl)-2,9,9-trimethyl-8,9-dihydro-7H-cyclopenta[d]imidazo[1,2-b]pyridazine-7-carboxamide]
17 | 100 to 1000 | < 10 | CC1(C)CC(C(=O)Nc2cnc(OC(F)F)c(Cl)c2)c2cnn3cc(Cl)nc3c21 (single isomer, unassigned) [Example 191, 2-chloro-N-(5-chloro-6-(difluoromethoxy)pyridin-3-yl)-9,9-dimethyl-8,9-dihydro-7H-cyclopenta[d]imidazo[1,2-b]pyridazine-7-carboxamide]
18 | 10 to 100 | < 10 | CC1(C)CC(C(=O)Nc2cnc(-n3nccn3)c(C(F)(F)F)c2)c2cnn3cc(Cl)nc3c21 (single isomer, unassigned) [Example 193, N-(6-(2H-1,2,3-triazol-2-yl)-5-(trifluoromethyl)pyridin-3-yl)-2-chloro-9,9-dimethyl-8,9-dihydro-7H-cyclopenta[d]imidazo[1,2-b]pyridazine-7-carboxamide]
